Measurements reported in the supplement of paper PMC10331698.
± gives the standard deviation of the averaged measurements.

Columns and labels:
Experiment in all cases: level (log10 ratio to DMSO vehicle control); higher = higher biomarker level / cell amount than vehicle control
[1] = compound: C=C(C)C(=O)OCCC(F)(F)C(F)(F)C(F)(F)C(F)(F)C(F)(F)C(F)(F)F [6:2 Fluorotelomer methacrylate]; conditions: in DMSO
Method: (§1)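 BioMAP Diversity Plus panel of 12 human primary cell co-culture systems (3C, 4H, LPS, SAg, BT, BF4T, BE3C, CASM3C, HDF3CGF, KF3CT, MyoF, Mphg). Compounds were added 1 h before stimulation and left for 24 h (MyoF 48 h; BT 72 h for soluble read-outs or 6 d for IgG). Biomarkers were read by ELISA, cytotoxicity by SRB, PBMC viability and proliferation by Alamar Blue. Each well value was divided by the mean of 8 DMSO control wells on the same plate and log10 transformed; duplicate blinded samples were tested at 4 concentrations.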

[2] = compound: C=CC(=O)OCC(F)(F)C(F)(F)C(F)(F)COC(=O)C=C [1H,1H,5H,5H-Perfluoro-1,5-pentanediol diacrylate]; conditions: 6700 nM; in DMSO
Method: as §1

[3] = compound: COC(=O)C(F)(F)C(F)(F)OC(F)(C(F)(F)F)C(F)(F)OC(F)=C(F)F [Methyl perfluoro(3-(1-ethenyloxypropan-2-yloxy)propanoate)]; conditions: in DMSO
Method: as §1

[4] = compound: FC(F)(F)C(F)(F)C(F)(F)C(F)(F)C(F)(F)C(F)(F)C(F)(F)I [1-Iodopentadecafluoroheptane]; conditions: in DMSO
Method: as §1

[5] = compound: FC(F)(F)C(F)(F)C(F)(F)C(F)(F)C(F)(F)C(F)(F)CC1CO1 [3-(Perfluorohexyl)-1,2-epoxypropane]; conditions: in DMSO
Method: as §1

[6] = compound: FC(F)(F)C(F)(F)C(F)(F)CC1CO1 [1H,1H-Heptafluorobutyl epoxide]; conditions: in DMSO
Method: as §1

[7] = compound: FC(F)(F)C(F)(F)C(F)(F)CI [Heptafluorobutyl iodide]; conditions: in DMSO
Method: as §1

[8] = compound: FC(F)(F)C(F)(F)CNCC(F)(F)C(F)(F)F [Bis(1H,1H-perfluoropropyl)amine]; conditions: in DMSO
Method: as §1

[9] = compound: NC(=O)C(F)(F)C(F)(F)C(F)(F)C(F)(F)C(N)=O [Octafluoroadipamide]; conditions: in DMSO
Method: as §1

[10] = compound: NC(=O)C(F)(F)C(F)(F)C(F)(F)C(F)(F)F [Nonafluoropentanamide]; conditions: in DMSO
Method: as §1

[11] = compound: NC(=O)C(F)(F)C(F)(F)C(F)(F)C(F)F; conditions: in DMSO
Method: as §1

[12] = compound: NS(=O)(=O)C(F)(F)C(F)(F)C(F)(F)C(F)(F)C(F)(F)C(F)(F)F [Perfluorohexanesulfonamide]; conditions: in DMSO
Method: as §1

[13] = compound: O=C(O)C(F)(F)C(F)(F)C(F)(F)C(F)(F)C(F)(F)C(F)(F)C(F)(F)C(F)(F)C(F)(F)C(F)F [11-H-Perfluoroundecanoic acid]; conditions: in DMSO
Method: as §1

[14] = compound: O=C(O)C=CC(F)(C(F)(F)F)C(F)(F)F [3-(Perfluoroisopropyl)-2-propenoic acid]; conditions: in DMSO
Method: as §1

[15] = compound: O=S(=O)(Cl)C(F)(F)C(F)(F)C(F)(F)C(F)(F)C(F)(F)C(F)(F)C(F)(F)C(F)(F)F [Perfluoro-1-octanesulfonyl chloride]; conditions: in DMSO
Method: as §1

[16] = compound: O=S(=O)(F)C(F)(F)C(F)(F)C(F)(F)C(F)(F)C(F)(F)C(F)(F)C(F)(F)C(F)(F)F [Perfluorooctanesulfonyl fluoride]; conditions: in DMSO
Method: as §1

[17] = compound: O=S(=O)(O)C(F)(F)C(F)(F)C(F)(F)C(F)(F)C(F)(F)C(F)(F)C(F)(F)C(F)(F)C(F)(F)C(F)(F)F [Sodium perfluorodecanesulfonate]; conditions: in DMSO
Method: as §1

[18] = compound: O=S(=O)(O)CCC(F)(F)C(F)(F)C(F)(F)C(F)(F)C(F)(F)C(F)(F)F [6:2 Fluorotelomer sulfonic acid]; conditions: in DMSO
Method: as §1

[19] = compound: OCC(F)(F)C(F)(F)C(F)(F)CO [Hexafluoroamylene glycol]; conditions: in DMSO
Method: as §1

Test System: LPS:sTNF-alpha
- level (log10) ([1]; 6700 nM): 0.031 ± 0.028
- level (log10) ([1]; 20000 nM): 0.0415 ± 0.021
- level (log10) ([1]; 60000 nM): 0.0405 ± 0.022
- level (log10) [2]: -0.008 ± 0.0057
- level (log10) ([3]; 6700 nM): 0.0115 ± 0.046
- level (log10) ([3]; 20000 nM): 0.0395 ± 0.019
- level (log10) ([4]; 6700 nM): 0.0115 ± 0.018
- level (log10) ([4]; 20000 nM): 0.0025 ± 0.0092
- level (log10) ([5]; 6700 nM): 0.063 ± 0.034
- level (log10) ([5]; 20000 nM): 0.09 ± 0.0028
- level (log10) ([5]; 60000 nM): 0.103 ± 0.011
- level (log10) ([6]; 6700 nM): -0.003 ± 0.014
- level (log10) ([6]; 20000 nM): -0.0055 ± 0.012
- level (log10) ([6]; 60000 nM): -0.014 ± 0.0085
- level (log10) ([7]; 6700 nM): -0.009 ± 0.017
- level (log10) ([7]; 20000 nM): -0.0095 ± 0.016
- level (log10) ([7]; 60000 nM): -0.009 ± 0.023
- level (log10) ([8]; 6700 nM): 0.007 ± 0.028
- level (log10) ([8]; 20000 nM): 0.005 ± 0.013
- level (log10) ([8]; 60000 nM): -0.0005 ± 0.0078
- level (log10) ([9]; 6700 nM): 0.047 ± 0.018
- level (log10) ([9]; 20000 nM): 0.0355 ± 0.018
- level (log10) ([9]; 60000 nM): 0.037 ± 0.0042
- level (log10) ([10]; 6700 nM): 0.018 ± 0.037
- level (log10) ([10]; 20000 nM): 0.0125 ± 0.0092
- level (log10) ([10]; 60000 nM): -0.043 ± 0.013
- level (log10) ([11]; 6700 nM): -0.0095 ± 0.0035
- level (log10) ([11]; 20000 nM): -0.0095 ± 0.022
- level (log10) ([11]; 60000 nM): -0.003 ± 0.031
- level (log10) ([12]; 6700 nM): -0.0515 ± 0.022
- level (log10) ([12]; 20000 nM): -0.02 ± 0.041
- level (log10) ([12]; 60000 nM): -0.0325 ± 0.079
- level (log10) ([13]; 6700 nM): 0.0065 ± 0.0092
- level (log10) ([13]; 20000 nM): 0.0135 ± 0.0035
- level (log10) ([14]; 6700 nM): 0.003 ± 0.1
- level (log10) ([14]; 20000 nM): 0.0345 ± 0.057
- level (log10) ([14]; 60000 nM): 0.0395 ± 0.03
- level (log10) ([15]; 6700 nM): -0.0175 ± 0.044
- level (log10) ([15]; 20000 nM): -0.002 ± 0.045
- level (log10) ([15]; 60000 nM): -0.026 ± 0.052
- level (log10) ([16]; 6700 nM): -0.009 ± 0.0057
- level (log10) ([16]; 20000 nM): 0 ± 0.0014
- level (log10) ([16]; 60000 nM): -0.0015 ± 0.013
- level (log10) ([17]; 1500 nM): -0.0135 ± 0.0078
- level (log10) ([17]; 4400 nM): -0.0375 ± 0.059
- level (log10) ([17]; 13000 nM): -0.162 ± 0.0085
- level (log10) ([17]; 40000 nM): -0.42 ± 0.052
- level (log10) ([18]; 6700 nM): -0.002 ± 0.0042
- level (log10) ([18]; 20000 nM): 0 ± 0.0057
- level (log10) ([18]; 60000 nM): 0.0015 ± 0.0092
- level (log10) ([19]; 6700 nM): 0.0025 ± 0.012
- level (log10) ([19]; 20000 nM): -0.009 ± 0.014
- level (log10) ([19]; 60000 nM): -0.001 ± 0.0099

Test System: MyoF:CXCL8/IL-8
- level (log10) ([1]; 6700 nM): -0.0055 ± 0.021
- level (log10) ([1]; 20000 nM): 0.051 ± 0.0057
- level (log10) ([1]; 60000 nM): 0.041 ± 0.0085
- level (log10) [2]: 0.003 ± 0.014
- level (log10) ([3]; 6700 nM): 0.083 ± 0.04
- level (log10) ([3]; 20000 nM): 0.154 ± 0.034
- level (log10) ([4]; 6700 nM): 0.028 ± 0.018
- level (log10) ([4]; 20000 nM): 0.034 ± 0.038
- level (log10) ([5]; 6700 nM): -0.019
- level (log10) ([5]; 20000 nM): -0.0205 ± 0.025
- level (log10) ([5]; 60000 nM): -0.005 ± 0.031
- level (log10) ([6]; 6700 nM): -0.012 ± 0.0028
- level (log10) ([6]; 20000 nM): 0.006 ± 0.0099
- level (log10) ([6]; 60000 nM): -0.021 ± 0.0042
- level (log10) ([7]; 6700 nM): -0.0205 ± 0.0035
- level (log10) ([7]; 20000 nM): -0.0475 ± 0.0092
- level (log10) ([7]; 60000 nM): -0.0395 ± 0.011
- level (log10) ([8]; 6700 nM): -0.024 ± 0.0028
- level (log10) ([8]; 20000 nM): -0.003 ± 0.018
- level (log10) ([8]; 60000 nM): 0.019 ± 0.033
- level (log10) ([9]; 6700 nM): 0.007 ± 0.028
- level (log10) ([9]; 20000 nM): -0.006 ± 0.011
- level (log10) ([9]; 60000 nM): 0.0075 ± 0.016
- level (log10) ([10]; 6700 nM): -0.0255 ± 0.00071
- level (log10) ([10]; 20000 nM): -0.01 ± 0.024
- level (log10) ([10]; 60000 nM): 0.0125 ± 0.015
- level (log10) ([11]; 6700 nM): -0.0285 ± 0.0092
- level (log10) ([11]; 20000 nM): -0.0185 ± 0.028
- level (log10) ([11]; 60000 nM): 0.018 ± 0.054
- level (log10) ([12]; 6700 nM): 0.046 ± 0.068
- level (log10) ([12]; 20000 nM): 0.024 ± 0.067
- level (log10) ([12]; 60000 nM): 0.0085 ± 0.015
- level (log10) ([13]; 6700 nM): -0.0375 ± 0.03
- level (log10) ([13]; 20000 nM): -0.071 ± 0.028
- level (log10) ([14]; 6700 nM): -0.0445 ± 0.0064
- level (log10) ([14]; 20000 nM): -0.032 ± 0.0028
- level (log10) ([14]; 60000 nM): -0.0025 ± 0.019
- level (log10) ([15]; 6700 nM): -0.005 ± 0.016
- level (log10) ([15]; 20000 nM): 0.0115 ± 0.005
- level (log10) ([15]; 60000 nM): 0.138 ± 0.0042
- level (log10) ([16]; 6700 nM): 0.0095 ± 0.0021
- level (log10) ([16]; 20000 nM): 0.023 ± 0.0042
- level (log10) ([16]; 60000 nM): 0.0325 ± 0.032
- level (log10) ([17]; 1500 nM): -0.04 ± 0.0071
- level (log10) ([17]; 4400 nM): -0.039 ± 0.0071
- level (log10) ([17]; 13000 nM): -0.021 ± 0.023
- level (log10) ([17]; 40000 nM): 0.02 ± 0.044
- level (log10) ([18]; 6700 nM): 0.007 ± 0.031
- level (log10) ([18]; 20000 nM): 0 ± 0.018
- level (log10) ([18]; 60000 nM): 0.016 ± 0.021
- level (log10) ([19]; 6700 nM): -0.0385 ± 0.028
- level (log10) ([19]; 20000 nM): -0.0325 ± 0.018
- level (log10) ([19]; 60000 nM): 0.001 ± 0.075
